Among the data in patent publication US8404670B2 (Sunovion Pharmaceuticals Inc., priority 2009, dated 2013) are IC50 values, retold here.

Structures are written as SMILES.

By IC50 is commonly meant the concentration at which inhibition is half-maximal.

In this test the target is T1, human histamine H3 receptor (Homo sapiens, UniProt Q9Y5N1).
T1 construct: host or cells: cells expressing the human H3 receptor
T1 sequence (Q9Y5N1 whole entry): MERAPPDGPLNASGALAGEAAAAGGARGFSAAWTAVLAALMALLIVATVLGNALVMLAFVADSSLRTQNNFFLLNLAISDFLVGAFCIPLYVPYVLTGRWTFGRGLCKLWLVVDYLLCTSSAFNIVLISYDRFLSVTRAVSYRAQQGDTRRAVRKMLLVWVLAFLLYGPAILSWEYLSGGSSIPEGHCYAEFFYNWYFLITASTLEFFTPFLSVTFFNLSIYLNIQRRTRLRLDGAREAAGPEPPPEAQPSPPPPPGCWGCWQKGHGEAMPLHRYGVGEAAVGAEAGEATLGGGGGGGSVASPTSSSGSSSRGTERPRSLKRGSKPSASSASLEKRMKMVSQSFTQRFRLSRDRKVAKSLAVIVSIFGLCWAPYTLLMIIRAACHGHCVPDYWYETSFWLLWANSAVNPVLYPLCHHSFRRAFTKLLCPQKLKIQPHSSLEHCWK
In words: H3 GTPγS assay (SPA method), histamine H3 in vitro assay. The format is biochemical. The conditions noted are these: GTPγ[35S] binding to membranes of cells expressing human H3; antagonist mode with R-γ-Me-Histamine at EC80 (30 nM); in one embodiment HCl salts tested; read-out: Potency (functional potency as indicated by IC50). Background: GTPγS is a poorly hydrolysed GTP analogue; its binding reports G protein activation.
As for `c1cc2c(cc1-c1ccc3c(c1)nc1n3CCN(C3CCC3)CC1)OCO2` [Compound 210, 8-(benzo[d][1,3]dioxol-5-yl)-3-cyclobutyl-2,3,4,5-tetrahydro-1H-benzo[4,5]imidazo[1,2-d][1,4]diazepine], the IC50 is not above 10 nM.

Consider `Clc1ccc(-c2ccc3c(c2)nc2n3CCN(C3CCC3)CC2)cc1Cl` [Compound 211, 3-cyclobutyl-8-(3,4-dichlorophenyl)-2,3,4,5-tetrahydro-1H-benzo[4,5]imidazo[1,2-d][1,4]diazepine], for which the IC50 was not above 100 nM.

As to `CC(C)(C)c1ccc(-c2ccc3c(c2)nc2n3CCN(C3CCC3)CC2)cc1` [Compound 212, 8-(4-(tert-butyl)phenyl)-3-cyclobutyl-2,3,4,5-tetrahydro-1H-benzo[4,5]imidazo[1,2-d][1,4]diazepine], the IC50 was not above 10 nM.

`FC(F)(F)c1ccc(-c2ccc3c(c2)nc2n3CCN(C3CCC3)CC2)cc1` [Compound 213, 3-cyclobutyl-8-(4-(trifluoromethyl)phenyl)-2,3,4,5-tetrahydro-1H-benzo[4,5]imidazo[1,2-d][1,4]diazepine]: the IC50 is not above 100 nM.

As to `c1ccc2cc(-c3ccc4c(c3)nc3n4CCN(C4CCC4)CC3)ccc2c1` [Compound 214, 3-cyclobutyl-8-(naphthalen-2-yl)-2,3,4,5-tetrahydro-1H-benzo[4,5]imidazo[1,2-d][1,4]diazepine], the half-maximal inhibitory concentration (IC50) was not above 100 nM.

For `O=c1[nH]c2cc(-c3ccc4c(c3)nc3n4CCN(C4CCC4)CC3)ccc2o1` [Compound 215, 5-(3-cyclobutyl-2,3,4,5-tetrahydro-1H-benzo[4,5]imidazo[1,2-d][1,4]diazepin-8-yl)benzo[d]oxazol-2(3H)-one], the concentration for half-maximal inhibition (IC50) was not above 100 nM.

As for `O=C1CCc2cc(-c3ccc4c(c3)nc3n4CCN(C4CCC4)CC3)ccc2N1` [Compound 216, 6-(3-cyclobutyl-2,3,4,5-tetrahydro-1H-benzo[4,5]imidazo[1,2-d][1,4]diazepin-8-yl)-3,4-dihydroquinolin-2(1H)-one], the IC50 is not above 10 nM.

For the compound `c1nc2cc(-c3ccc4c(c3)nc3n4CCN(C4CCC4)CC3)ccc2[nH]1` [Compound 217, 8-(1H-benzo[d]imidazol-5-yl)-3-cyclobutyl-2,3,4,5-tetrahydro-1H-benzo[4,5]imidazo[1,2-d][1,4]diazepine], the half-maximal inhibitory concentration (IC50) was not above 100 nM.

As for `c1cc2c(cc1-c1cnc3[nH]ncc3c1)nc1n2CCN(C2CCC2)CC1` [Compound 223, 3-cyclobutyl-8-(1H-pyrazolo[3,4-b]pyridin-5-yl)-2,3,4,5-tetrahydro-1H-benzo[4,5]imidazo[1,2-d][1,4]diazepine], the 50% inhibitory concentration (IC50) is not above 10 nM.

As for `c1ccc(CN2CCN(c3ccc4c(c3)nc3n4CCN(C4CCC4)CC3)CC2)cc1` [Compound 224, 8-(4-benzylpiperazin-1-yl)-3-cyclobutyl-2,3,4,5-tetrahydro-1H-benzo[4,5]imidazo[1,2-d][1,4]diazepine], the IC50 was not above 10 nM.

As to `c1cc2c(cc1N1CCC(N3CCOCC3)CC1)nc1n2CCN(C2CCC2)CC1` [Compound 225, 4-(1-(3-cyclobutyl-2,3,4,5-tetrahydro-1H-benzo[4,5]imidazo[1,2-d][1,4]diazepin-8-yl)piperidin-4-yl)morpholine], the concentration for half-maximal inhibition (IC50) is not above 10 nM.

For the compound `c1cc2c(cc1N1CCCC1)nc1n2CCN(C2CCC2)CC1` [Compound 226, 3-cyclobutyl-8-(pyrrolidin-1-yl)-2,3,4,5-tetrahydro-1H-benzo[4,5]imidazo[1,2-d][1,4]diazepine], the IC50 was not above 100 nM.

As to `c1ccc(C2CCN(c3ccc4c(c3)nc3n4CCN(C4CCC4)CC3)CC2)cc1` [Compound 227, 3-cyclobutyl-8-(4-phenylpiperidin-1-yl)-2,3,4,5-tetrahydro-1H-benzo[4,5]imidazo[1,2-d][1,4]diazepine], the IC50 was not above 100 nM.

With `N#Cc1ccc(N2CCN(c3ccc4c(c3)nc3n4CCN(C4CCC4)CC3)CC2)cc1` [Compound 228, 4-(4-(3-cyclobutyl-2,3,4,5-tetrahydro-1H-benzo[4,5]imidazo[1,2-d][1,4]diazepin-8-yl)piperazin-1-yl)benzonitrile], the IC50 was not above 10 nM.

Regarding `c1ccc(N2CCN(c3ccc4c(c3)nc3n4CCN(C4CCC4)CC3)CC2)cc1` [Compound 229, 3-cyclobutyl-8-(4-phenylpiperazin-1-yl)-2,3,4,5-tetrahydro-1H-benzo[4,5]imidazo[1,2-d][1,4]diazepine], the half-inhibitory concentration (IC50) is not above 10 nM.

Turning to `c1ccc(N2CCN(c3ccc4c(c3)nc3n4CCN(C4CCC4)CC3)CC2)nc1` [Compound 230, 3-cyclobutyl-8-(4-(pyridin-2-yl)piperazin-1-yl)-2,3,4,5-tetrahydro-1H-benzo[4,5]imidazo[1,2-d][1,4]diazepine], the 50% inhibitory concentration (IC50) is not above 10 nM.

`Fc1ccc(N2CCN(c3ccc4c(c3)nc3n4CCN(C4CCC4)CC3)CC2)cc1` [Compound 231, 3-cyclobutyl-8-(4-(4-fluorophenyl)piperazin-1-yl)-2,3,4,5-tetrahydro-1H-benzo[4,5]imidazo[1,2-d][1,4]diazepine]: the IC50 is not above 10 nM.

Take `c1csc(N2CCN(c3ccc4c(c3)nc3n4CCN(C4CCC4)CC3)CC2)n1` [Compound 232, 2-(4-(3-cyclobutyl-2,3,4,5-tetrahydro-1H-benzo[4,5]imidazo[1,2-d][1,4]diazepin-8-yl)piperazin-1-yl)thiazole]: the IC50 was not above 10 nM.

On to `c1cnc(N2CCN(c3ccc4c(c3)nc3n4CCN(C4CCC4)CC3)CC2)cn1` [Compound 233, 3-cyclobutyl-8-(4-(pyrazin-2-yl)piperazin-1-yl)-2,3,4,5-tetrahydro-1H-benzo[4,5]imidazo[1,2-d][1,4]diazepine], for which the half-maximal inhibitory concentration (IC50) was not above 10 nM.

For the compound `c1ccc(N2CCN(c3ccc4nc5n(c4c3)CCN(C3CCC3)CC5)CC2)nc1` [Compound 234, 3-cyclobutyl-9-(4-(pyridin-2-yl)piperazin-1-yl)-2,3,4,5-tetrahydro-1H-benzo[4,5]imidazo[1,2-d][1,4]diazepine], the 50% inhibitory concentration (IC50) is not above 100 nM.

For `Brc1cnc2c(c1)nc1n2CCN(C2CCC2)CC1` [Compound 235, 7-Aza-3-cyclobutyl-9-bromo-2,3,4,5-tetrahydro-1H-[1,4]diazepino[1,7-a]benzimidazole], the concentration for half-maximal inhibition (IC50) is not below 1000 nM.

For `c1cnc(-c2cnc3c(c2)nc2n3CCN(C3CCC3)CC2)cn1` [Compound 236, 7-Aza-3-cyclobutyl-9-(pyrazin-2-yl)-2,3,4,5-tetrahydro-1H-[1,4]diazepino[1,7-a]benzimidazole], the IC50 was not above 1000 nM.

With `N#Cc1ccc(-c2cnc3c(c2)nc2n3CCN(C3CCC3)CC2)cc1` [Compound 237, 4-(7-aza-3-cyclobutyl-2,3,4,5-tetrahydro-1H-[1,4]diazepino[1,7-a]benzimidazol-9-yl)benzonitrile], the IC50 was not above 100 nM.

Turning to `c1coc(-c2cnc3c(c2)nc2n3CCN(C3CCC3)CC2)c1` [Compound 238], the IC50 is not above 1000 nM.

Turning to `NCc1ccc(-c2cnc3c(c2)nc2n3CCN(C3CCC3)CC2)cc1` [Compound 239], the concentration for half-maximal inhibition (IC50) is not above 100 nM.
